The source of these data is patent publication US10717733B2, “Haloallylamine indole and azaindole derivative inhibitors of lysyl oxidases and uses thereof” (PHARMAXIS LTD., priority 2016, dated 2020).

Structures can show the parent of a compound that is named as a salt.

Test [1] has as its system bleomycin induced lung fibrosis. Put plainly: Bleomycin induced lung fibrosis model. It counts as in vivo. Particulars: mouse, intranasal bleomycin, 15 mg/kg. Here is the method:
Bleomycin induced lung fibrosis in rodents is a widely accepted experimental model to determine the anti-fibrotic activity of therapeutic agents.
Fibrosis is induced by intranasal administered of bleomycin sulphate at a dose of 0.05 U/mouse in a total volume of 50 uL PBS (see Corbel, M., et al Inhibition of bleomycin-induced pulmonary fibrosis in mice by the matrix metalloproteinase inhibitor batimastat J Pathol. 2001 April; 193(4):538-45.) Compound 12 is given 0.1-100 mg/Kg throughout the period of the experimental procedure or 7 days after bleomycin administration and then throughout the entire study.
Formalin fixed lungs sections stained with haematoxylin and eosin are assessed for fibrosis as per the scale outlined by Ashcroft et al (Simple method of estimating severity of pulmonary fibrosis on a numerical scale J Clin Pathol 1988; 41:467-470).

Test [2] concerns Streptozotocin (STZ)-induced diabetic nephropathy. Put plainly: Streptozotocin induced diabetic nephropathy (kidney fibrosis) model. It counts as in vivo, mouse. Particulars: diabetic eNOS knockout mice, 24 weeks, 0.1-100 mg/Kg. Here is the method:
Streptozotocin (STZ)-induced diabetic nephropathy is commonly used for creating rodent models of type 1 diabetes which develop renal injury, due to pancreatic cell damage with similarities to human diabetic nephropathy.
Diabetes is induced in eNOS knockout mice on C57BL/6 background by intraperitoneal STZ injection (55 mg/kg in 0.1 M citrate buffer) in mice of 6-9 weeks of age (see Huang C et al, Blockade of KCa3.1 ameliorates renal fibrosis through a TGF-bl/Smad pathway in diabetic mice. Diabetes, 2013 62(8):2923-2934).
Blood sugar level (BSL) is determined by tail vein blood. Mice with BSL>16 mmol/L two weeks post STZ injection are considered diabetic. Treatment with Compound 12 is carried out for 24 weeks from diagnosis of diabetes at a dose of 0.1-100 mg/Kg.

Test [3] relates to CCl4 induced liver fibrosis. The test is described as follows: CCl4 induced liver fibrosis model. The conditions noted are these: 0.1-100 mg/Kg. It counts as in vivo, rat. Here is the method: An analysis of the use of LOXL2 inhibitors to treat inflammatory/fibrotic diseases is performed through the use of a CCl4 induced liver fibrosis model. Liver injury is frequently followed by complete parenchymal regeneration due to regenerative potency of hepatocytes. Continuous liver injury due to the administration of CCl4 leads to extracellular matrix accumulation, accompanied by recurrent hepatocyte necrosis, inflammation, and regenerative processes, causing liver fibrosis and consequently liver cirrhosis (see Natsume, M., et al., Attenuated liver fibrosis and depressed serum albumin levels in carbon tetrachloride-treated IL-6-deficient mice. J. Leukoc. Biol., 1999, 66, 601-608 also See Yao, Q, Y., et al. Inhibition by curcumin of multiple sites of the transforming growth factor-beta1 signalling pathway ameliorates the progression of liver fibrosis induced by carbon tetrachloride in rats. BMC Complement Altern Med. 2012 Sep. 16; 12(1):156.)
Rats are administered orally with CCl4 at a concentration of 0.25 μL/g in olive oil, 3 times per week for 6 weeks. Compound 25 is given 0.1-100 mg/Kg throughout the period of the experimental procedure or only 3 weeks after CCl4 administration and then throughout the entire study. […]

As for `CCOC(=O)c1ccc2c(c1)c(-c1cccc(S(=O)(=O)N(C)C)c1)c(C)n2C/C(F)=C/CN` [Compound 12, (Z)-ethyl 1-(4-amino-2-fluorobut-2-en-1-yl)-3-(3-(N,N-dimethylsulfamoyl)phenyl)-2-methyl-1H-indole-5-carboxylate], the “Ashcroft score in the lungs” value in test [1] is “significantly reduced”. Also, the “kidney function by albumin/creatinine ratio quantification” value in test [2] is “significant improvement”. Further, the “reduction of fibrosis by Masson's Trichrome staining (collagen expression and glomerular damage)” value in test [2] (vs vehicle-treated group) is listed as “up to 50%”.
As for `Cc1c(-c2cccc(S(=O)(=O)N(C)C)c2)c2ncccc2n1C/C(F)=C/CN` [Compound 25, (Z)-3-(1-(4-amino-2-fluorobut-2-en-1-yl)-2-methyl-1H-pyrrolo[3,2-b]pyridin-3-yl)-N,N-dimethylbenzenesulfonamide Dihydrochloride], the “inhibition of liver collagen by hydroxyproline analysis” value in test [3] (CCl4 model, statistically significant) is > 30%. Further, the “reduction of liver fibrosis by liver sirius red staining with quantification” value in test [3] (rats, CCl4 orally 6 weeks, vs vehicle-treated group) is given as “up to 50%”.
